According to US11840497B2, “4-(p-quinonyl)-2-hydroxybutanamide derivatives for treatment of mitochondrial diseases” (PTC Therapeutics, Inc., priority 2007, dated 2023):

Tests used:
Format in all cases: cell-based
[1] = system: human dermal fibroblasts from CoQ10 deficient patients; assay: Rescue of stressed fibroblasts from CoQ10 deficient patients (Example E); details: Fibroblast, fibroblasts harboring a CoQ2 mutation, screen similar to Example A, read-out: protection against CoQ10 deficiency, EC50
Method: Compounds of the invention were tested using a screen similar to the one described in Example A, but substituting FRDA cells with cells obtained from CoQ10 deficient patients harboring a CoQ2 mutation.

[2] = system: Human dermal fibroblasts from Friedreich's Ataxia patients; assay: Rescue of BSO-stressed FRDA fibroblasts (Example A); details: FRDA fibroblasts GM04078, 1 mM BSO, read-out: protection against FRDA, EC50
Method: Test samples, 4 reference compounds (idebenone, decylubiquinone, Trolox and α-tocopherol acetate), and solvent controls were tested for their ability to rescue FRDA fibroblasts stressed by addition of L-buthionine (S,R)-sulfoximine (BSO), as described in Jauslin et al., Hum. Mol. Genet. […] Mol. Genet. […] This specific BSO-mediated cell death can be prevented by administration of antioxidants or molecules involved in the antioxidant pathway, such as α-tocopherol, selenium, or small molecule glutathione peroxidase mimetics. However, antioxidants differ in their potency, i.e. the concentration at which they are able to rescue BSO-stressed FRDA fibroblasts.
Fetal Calf Serum was obtained from PAA Laboratories. Basic fibroblast growth factor and epidermal growth factor were purchased from PeproTech. Penicillin-streptomycin-glutamine mix, L-buthionine (S,R)-sulfoximine, (+)-α-tocopherol acetate, decylubiquinone, and insulin from bovine pancreas were purchased from Sigma. Trolox (6-Hydroxy-2,5,7,8-tetramethylchroman-2-carboxylic acid) was obtained from Fluka. Idebenone was obtained from Chemo Iberica. Calcein AM was purchased from Molecular Probes. Cell culture medium was made by combining 125 ml M199 EBS, 50 ml Fetal Calf Serum, 100 U/ml penicillin, 100 μg/ml streptomycin, 2 mM glutamine, 10 μg/ml insulin, 10 ng/ml EGF, and 10 ng/ml bFGF; MEM EBS was added to make the volume up to 500 ml. […] During the course of the experiments, this solution was stored at +4° C. The cells were obtained from the Coriell Cell Repositories (Camden, NJ; repository number GM04078) and grown in 10 cm tissue culture plates. Every third day, they were split at a 1:3 ratio.
The test samples were supplied in 1.5 ml glass vials. […] Once dissolved, they were stored at −20° C. Reference antioxidants (idebenone, decylubiquinone, α-tocopherol acetate and trolox) were dissolved in DMSO.
Test samples were screened according to the following protocol: A culture with FRDA fibroblasts was started from a 1 ml vial with approximately 500,000 cells stored in liquid nitrogen. […] Once confluent, fibroblasts were harvested. […] The remaining cells were distributed in 10 cm cell culture plates (500,000 cells/plate) for propagation. The plates were incubated overnight at 37° C. in a atmosphere with 95% humidity and 5% CO2 to allow attachment of the cells to the culture plate.
MTP medium (243 μl) was added to a well of the microtiter plate. […] Serial dilutions from the master solution were made. The period between the single dilution steps was kept as short as possible (generally less than 1 second).
Plates were kept overnight in the cell culture incubator. The next day, 10 μl of a 10 mM BSO solution were added to the wells, resulting in a 1 mM final BSO concentration. Forty-eight hours later, three plates were examined under a phase-contrast microscope to verify that the cells in the 0% control (wells E1-H1) were clearly dead. The medium from all plates was discarded, and the remaining liquid was removed by gently tapping the plate inversed onto a paper towel.
The plates were incubated for 50-70 minutes at room temperature. After that time the PBS was discarded, the plate gently tapped on a paper towel and fluorescence (excitation/emission wavelengths of 485 nm and 525 nm, respectively) was read on a Gemini fluorescence reader. Data was imported into Microsoft Excel (EXCEL is a registered trademark of Microsoft Corporation for a spreadsheet program) and used to calculate the EC50 concentration for each compound.
The compounds were tested three times, i.e., the experiment was performed three times, the passage number of the cells increasing by one with every repetition.
The viability of non-BSO treated fibroblasts was set as 100%, and the viability of the BSO- and compound-treated cells was calculated as relative to this value.

[3] = system: human dermal fibroblasts from LHON patients; assay: Rescue of BSO-stressed fibroblasts from LHON patients (Example C); details: Fibroblast, LHON fibroblasts GM03858, screen as Example A, read-out: protection against LHON, EC50
Method: The compounds were tested for their ability to rescue human dermal fibroblasts from LHON patients from oxidative stress.

[4] = system: human dermal fibroblasts from Huntington's patients; assay: Rescue of BSO-stressed fibroblasts from Huntington's patients (Example B); details: Fibroblast, Huntington's fibroblasts GM 04281, screen as Example A, read-out: protection against Hungtington's, EC50
Method: The compounds were tested for their ability to rescue human dermal fibroblasts from Huntington's patients from oxidative stress.

[5] = system: human dermal fibroblasts from Parkinson's Disease patients; assay: Rescue of BSO-stressed fibroblasts from Parkinson's Disease patients (Example D); details: Fibroblast, PD fibroblasts AG20439, screen as Example A, read-out: protection against PD, EC50
Method: The compounds were tested for their ability to rescue human dermal fibroblasts from Parkinson's Disease patients from oxidative stress.

Measured: EC50

CC(=O)N1CCN(C(=O)C(C)(O)CCC2=C(C)C(=O)C(C)=C(C)C2=O)CC1 (centres unmarked) [2-(4-(4-acetylpiperazin-1-yl)-3-hydroxy-3-methyl-4-oxobutyl)-3,5,6-trimethylcyclohexa-2,5-diene-1,4-dione]
not listed: [5]
< 100 nM: all other assays above

CC1=C(C)C(=O)C(CCC(C)(O)C(=O)NCc2cccnc2)=C(C)C1=O (centres unmarked) [2-hydroxy-2-methyl-N-(pyridin-3-ylmethyl)-4-(2,4,5-trimethyl-3,6-dioxocyclohexa-1,4-dienyl)butanamide]
< 100 nM: [1] | [3]

CC1=C(C)C(=O)C(CCC(C)(O)C(=O)NC(C)C)=C(C)C1=O (centres unmarked) [2-hydroxy-N-isopropyl-2-methyl-4-(2,4,5-trimethyl-3,6-dioxocyclohexa-1,4-dienyl)butanamide]
< 100 nM: [5]

CC1=C(C)C(=O)C(CC[C@](C)(O)C(N)=O)=C(C)C1=O [(S)-2-hydroxy-2-methyl-4-(2,4,5-trimethyl-3,6-dioxocyclohexa-1,4-dienyl)butanamide]
not listed: [5]
< 100 nM: all other assays above

CC1=C(C)C(=O)C(CCC(C)(O)C(=O)N2CCN(Cc3ccccc3)CC2)=C(C)C1=O (centres unmarked) [Example 15, 2-(4-(4-Benzylpiperazin-1-yl)-3-hydroxy-3-methyl-4-oxobutyl)-3,5,6-trimethylcyclohexa-2,5-diene-1,4-dione]
not listed: [1]
< 100 nM: all other assays above

CC1=C(C)C(=O)C(CCC(C)(O)C(N)=O)=C(C)C1=O (centres unmarked) [Example 16, 2-Hydroxy-2-methyl-4-(2,4,5-trimethyl-3,6-dioxocyclohexa-1,4-dienyl)butanamide]
not listed: [5]
< 100 nM: all other assays above

CC1=C(C)C(=O)C(CCC(C)(O)C(=O)NCCO)=C(C)C1=O (centres unmarked) [Example 20, 2-Hydroxy-N-(2-hydroxyethyl)-2-methyl-4-(2,4,5-trimethyl-3,6-dioxocyclohexa-1,4-dienyl)butanamide]
< 100 nM: all assays above

CC1=C(C)C(=O)C(CCC(C)(O)C(=O)NCCCn2ccnc2)=C(C)C1=O (centres unmarked) [Example 23, N-(3-(1H-imidazol-1-yl)propyl)-2-hydroxy-2-methyl-4-(2,4,5-trimethyl-3,6-dioxocyclohexa-1,4-dienyl)butanamide]
< 100 nM: [2] | [5] | [4]

CC1=C(C)C(=O)C(CC[C@@](C)(O)C(=O)NCCO)=C(C)C1=O [Example 24, (R)-2-Hydroxy-N-(2-hydroxyethyl)-2-methyl-4-(2,4,5-trimethyl-3,6-dioxocyclohexa-1,4-dienyl)butanamide]
< 100 nM: [2] | [5] | [4]

CC1=C(C)C(=O)C(CCC(C)(O)C(=O)NCCOCCO)=C(C)C1=O (centres unmarked) [Example 25, 2-Hydroxy-N-(2-(2-hydroxyethoxy)ethyl)-2-methyl-4-(2,4,5-trimethyl-3,6-dioxocyclohexa-1,4-dienyl)butanamide]
not listed: [1]
< 100 nM: all other assays above

CC1=C(C)C(=O)C(CC[C@](C)(O)C(=O)NCCO)=C(C)C1=O [Example 28, (S)-2-hydroxy-N-(2-hydroxyethyl)-2-methyl-4-(2,4,5-trimethyl-3,6-dioxocyclohexa-1,4-dienyl)butanamide]
< 100 nM: [2] | [5] | [4]

CC1=C(C)C(=O)C(CCC(C)(O)C(=O)NCCc2ccc(O)cc2)=C(C)C1=O (centres unmarked) [Example 36, N-(4-Hydroxyphenethyl)-2-hydroxy-2-methyl-4-(2,4,5-trimethyl-3,6-dioxocyclohexa-1,4-dienyl)butanamide]
not listed: [1]
< 100 nM: all other assays above

CC1=C(C)C(=O)C(CCC(C)(O)C(=O)NCCN(C)C)=C(C)C1=O (centres unmarked) [Example 37, N-(2-(Dimethylamino)ethyl)-2-hydroxy-2-methyl-4-(2,4,5-trimethyl-3,6-dioxocyclohexa-1,4-dienyl)butanamide]
< 100 nM: all assays above

CC1=C(C)C(=O)C(CCC(C)(O)C(=O)NCCCN(C)C)=C(C)C1=O (centres unmarked) [Example 40, N-(3-(Dimethylamino)propyl)-2-hydroxy-2-methyl-4-(2,4,5-trimethyl-3,6-dioxocyclohexa-1,4-dienyl)butanamide]
< 100 nM: [2] | [5] | [4]

CCCCCCNC(=O)C(C)(O)CCC1=C(C)C(=O)C(C)=C(C)C1=O (centres unmarked) [Example 43, N-hexyl-2-hydroxy-2-methyl-4-(2,4,5-trimethyl-3,6-dioxocyclohexa-1,4-dienyl)butanamide]
< 100 nM: [1] | [3]

CC1=C(C)C(=O)C(CCC(C)(O)C(=O)NCCc2ccc(Cl)cc2)=C(C)C1=O (centres unmarked) [N-(4-chlorophenethyl)-2-hydroxy-2-methyl-4-(2,4,5-trimethyl-3,6-dioxocyclohexa-1,4-dienyl)butanamide]
not listed: [5]
< 100 nM: all other assays above

CC1=C(C)C(=O)C(CCC(C)(O)C(=O)Nc2ccc(F)cc2)=C(C)C1=O (centres unmarked) [N-(4-fluorophenyl)-2-hydroxy-2-methyl-4-(2,4,5-trimethyl-3,6-dioxocyclohexa-1,4-dienyl)butanamide]
not listed: [5]
< 100 nM: all other assays above
